Measurements as given in US20230013669A1, “Antibacterial Treatment Using a Cannabinoid and an Active Agent” (priority 2019, published 2023).
Where “and” joins values, the source holds several entries; their conditions need not be identical. Identical values can stand only once.

Test system: Escherichia coli ATCC 25922 (GN_001)
Assay: Synergy of cannabidiol with cell-wall disrupting agent (CBD MIC in combination, FICI)
Format: cell-based
Procedure: The compounds were stored short term at 4° C.
Analysis was performed using Microsoft Excel.

[1] = CBD with Colistin, Escherichia coli ATCC 25922
[2] = CBD with MCC_6442, Escherichia coli ATCC 25922
[3] = CBD with Ticarcillin, Escherichia coli ATCC 25922

C=C(C)C1CCC(C)=CC1c1c(O)cc(CCCCC)cc1O (stereo not shown) [Cannabidiol, 2-[3-methyl-6-(1-methylethenyl)-2-cyclohexen-1-yl]-5-pentyl-1,3-benzenediol] was tested, and the “CBD MIC with Aztreonam” value (Aztreonam at 0.062 μg/mL) was 1 ng/mL, the “CBD MIC with Aztreonam” value (Aztreonam at 0.25 μg/mL) was 1 ng/mL and the “CBD MIC with Aztreonam” value (Aztreonam at 0.5 μg/mL) was 1 ng/mL. The “CBD MIC with Aztreonam” value (Aztreonam at […]) was 1 ng/mL, the FICI (CBD with Aztreonam at 0.015 μg/mL, CBD MIC taken as 256 μg/mL) was 1.12 and the FICI (CBD with Aztreonam at 0.031 μg/mL, CBD MIC taken as 256 μg/mL) was 1.248. The FICI (CBD with Aztreonam at 0.062 μg/mL, CBD MIC taken as 256 μg/mL) was 0.496, the FICI (CBD with Aztreonam at 0.25 μg/mL, CBD MIC taken as 256 μg/mL) was 2 and the FICI (CBD with Aztreonam at 0.5 μg/mL, CBD MIC taken as 256 μg/mL) was 4. The FICI range (CBD with Aztreonam, Synergy table (Table 76)) was 0.48, the FICI range (CBD with Aztreonam, all tested concentrations (Table 74)) was 0.5-4 and the FICI (CBD with Cefepime at 0.015 μg/mL, CBD MIC taken as 256 μg/mL) was 1.484 and 1.242. For the same compound, the FICI (CBD with Cefepime at 0.062 μg/mL, CBD MIC taken as 256 μg/mL) was 2, the FICI (CBD with Cefepime at 0.25 μg/mL, CBD MIC taken as 256 μg/mL) was 8.065 and the FICI (CBD with Cefepime at 0.25 μg/mL, CBD MIC taken as 256 μg/mL, listed as cannabidiol) was 4.032. For the same compound, the FICI (CBD with Cefepime at 0.5 μg/mL, CBD MIC taken as 256 μg/mL) was 16.13 and 8.065, the FICI range (CBD with Cefepime, all tested concentrations (Table 79), listed as CBD) was 1-16.13 and 0.5-8.06 and the FICI (CBD with Cefotetan at 0.015 μg/mL, CBD MIC taken as 256 μg/mL) was 1.06. It also gave an FICI (CBD with Cefotetan at 0.031 μg/mL, CBD MIC taken as 256 μg/mL) of 1.124, an FICI (CBD with Cefotetan at 0.062 μg/mL, CBD MIC taken as 256 μg/mL) of 1.248 and an FICI (CBD with Cefotetan at 0.5 μg/mL, CBD MIC taken as 256 μg/mL) of 2. The “FICI range (MIC table)” value (CBD with Cefotetan, Escherichia coli ATCC 25922) was 0.5-2, the FICI range (CBD with Cefotetan, Synergy table (Table 71)) was 0.5 and the FICI (CBD with Ceftazidime at 0.015 μg/mL, Escherichia coli ATCC 25922) was 1.242. The FICI (CBD with Ceftazidime at 0.031 μg/mL, Escherichia coli ATCC 25922) was 1.5, the FICI (CBD with Ceftazidime at 0.062 μg/mL, Escherichia coli ATCC 25922) was 2 and the FICI (CBD with Ceftazidime at 0.25 μg/mL, Escherichia coli ATCC 25922) was 4.032. The FICI (CBD with Ceftazidime at 0.5 μg/mL, Escherichia coli ATCC 25922) was 8.065, the “FICI range (MIC table)” value (CBD with Ceftazidime, Escherichia coli ATCC 25922) was 1.24-8.06 and the FICI (CBD with Cefuroxime at 0.25 μg/mL, Escherichia coli ATCC 25922) was 1.125. It also gave an FICI (CBD with Cefuroxime at 1 μg/mL, Escherichia coli ATCC 25922) of 1.5, an FICI (CBD with Cefuroxime at 2 μg/mL, Escherichia coli ATCC 25922) of 1.001 and an FICI (CBD with Cefuroxime at 4 μg/mL, Escherichia coli ATCC 25922) of 2. The FICI (CBD with Cefuroxime at 8 μg/mL, Escherichia coli ATCC 25922) was 4, the FICI (CBD with Colistin at 0.015 μg/mL, Escherichia coli ATCC 25922) was 1.03 and the FICI (CBD with Colistin at 0.03 μg/mL, Escherichia coli ATCC 25922) was 1.06. The FICI (CBD with Colistin at 0.06 μg/mL, Escherichia coli ATCC 25922) was 0.1512, the FICI (CBD with Colistin at 0.25 μg/mL, Escherichia coli ATCC 25922) was 0.5039 and the FICI (CBD with Colistin at 0.5 μg/mL, Escherichia coli ATCC 25922) was 1. The “FICI range (MIC table)” value [1] was 0.15-1.06, the “FICI range (Synergy table)” value [1] was 0.15-0.5 and the “FICI range (MIC table)” value [2] was 0.5-1.25. The “FICI range (Synergy table)” value [2] was 0.5, the FICI (CBD with MCC_6442 at 0.25 μg/mL, Escherichia coli ATCC 25922) was 1.0625 and the FICI (CBD with MCC_6442 at 0.5 μg/mL, Escherichia coli ATCC 25922) was 1.125. The FICI (CBD with MCC_6442 at 2 μg/mL, Escherichia coli ATCC 25922, listed as CBD) was 0.5, the FICI range (CBD with Octapeptin C4, Synergy table (Table 85), listed as CBD) was 0.5 and 0.31-0.5 and the FICI range (CBD with Octapeptin C4, all tested concentrations (Table 83), listed as CBD) was 0.5-1.25 and 0.31-1.13. For the same compound, the FICI (CBD with Octapeptin C4 at 0.5 μg/mL, CBD MIC taken as 256 μg/mL) was 1.0625, the FICI (CBD with Octapeptin C4 at 1 μg/mL, CBD MIC taken as 256 μg/mL) was 1.125 and the FICI (CBD with Octapeptin C4 at 2 μg/mL, CBD MIC taken as 256 μg/mL) was 0.3125. For the same compound, the FICI (CBD with Octapeptin C4 at 4 μg/mL, CBD MIC taken as 256 μg/mL) was 0.5002 and 0.5005, the FICI (CBD with Octapeptin C4 at […], CBD MIC taken as 256 μg/mL) was 1.016 and the FICI range (CBD with Spero SPR206, 1st of 3 experiments) was 0.5-16. The FICI range (CBD with Spero SPR206, 2nd of 3 experiments, listed as CBD) was 0.13-1.06 and 0.07-1.03, the FICI range (CBD with Spero SPR206, 3rd of 3 experiments) was 1.01-8 and the FICI (CBD with Spero SPR206 at 0.007 μg/mL, 2nd of 3 experiments, CBD MIC taken as 256 μg/mL) was 1.014. For the same compound, the FICI (CBD with Spero SPR206 at 0.015 μg/mL, 2nd of 3 experiments, CBD MIC taken as 256 μg/mL) was 1.03, the FICI (CBD with Spero SPR206 at 0.062 μg/mL, 2nd of 3 experiments, CBD MIC taken as 256 μg/mL) was 0.1279 and the FICI (CBD with Spero SPR206 at 0.25 μg/mL, 2nd of 3 experiments, CBD MIC taken as 256 μg/mL) was 0.5039. The FICI (CBD with Spero SPR206 at 0.25 μg/mL, 3rd of 3 experiments, CBD MIC taken as 256 μg/mL) was 1.5, the FICI (CBD with Spero SPR206 at 0.5 μg/mL, 1st of 3 experiments, CBD MIC taken as 256 μg/mL) was 2 and the FICI (CBD with Spero SPR206 at 0.5 μg/mL, 3rd of 3 experiments, CBD MIC taken as 256 μg/mL) was 1.008. For the same compound, the FICI (CBD with Spero SPR206 at 1 μg/mL, 1st of 3 experiments, CBD MIC taken as 256 μg/mL) was 4, the FICI (CBD with Spero SPR206 at 1 μg/mL, 3rd of 3 experiments, CBD MIC taken as 256 μg/mL) was 2.002 and 2.001 and the FICI (CBD with Spero SPR206 at 2 μg/mL, 1st of 3 experiments, CBD MIC taken as 256 μg/mL) was 8. For the same compound, the FICI (CBD with Spero SPR206 at 2 μg/mL, 3rd of 3 experiments, CBD MIC taken as 256 μg/mL) was 4.001, the FICI (CBD with Spero SPR206 at 4 μg/mL, 1st of 3 experiments, CBD MIC taken as 256 μg/mL) was 16 and the FICI (CBD with Spero SPR206 at 4 μg/mL, 3rd of 3 experiments, CBD MIC taken as 256 μg/mL) was 8. The FICI (CBD with Ticarcillin at 0.5 μg/mL, Escherichia coli ATCC 25922) was 1.0625, the FICI (CBD with Ticarcillin at 1 μg/mL, Escherichia coli ATCC 25922) was 1.125 and the FICI (CBD with Ticarcillin at 4 μg/mL, Escherichia coli ATCC 25922) was 0.5005. For the same compound, the “FICI range (MIC table)” value [3] was 0.5-1.25, the “FICI range (Synergy table)” value [3] was 0.5 and the “CBD MIC with Cefepime” value (Cefepime at 0.031 μg/mL) was 1 ng/mL. For the same compound, the “CBD MIC with Cefepime” value (Cefepime at 0.062 μg/mL) was 1 ng/mL, the “CBD MIC with Cefepime” value (Cefepime at 0.25 μg/mL) was 1 ng/mL and the “CBD MIC with Cefepime” value (Cefepime at 0.5 μg/mL) was 1 ng/mL. The “CBD MIC with Cefepime” value (Cefepime at […]) was 1 ng/mL, the “CBD MIC with Cefotetan” value (Cefotetan at 0.015 μg/mL) was greater than 32000 ng/mL and the “CBD MIC with Cefotetan” value (Cefotetan at 0.015 μg/mL, Escherichia coli ATCC 25922) was greater than 256000 ng/mL. The “CBD MIC with Cefotetan” value (Cefotetan at 0.031 μg/mL) was greater than 32000 ng/mL, the “CBD MIC with Cefotetan” value (Cefotetan at 0.031 μg/mL, Escherichia coli ATCC 25922) was greater than 256000 ng/mL and the “CBD MIC with Cefotetan” value (Cefotetan at 0.062 μg/mL) was greater than 32000 ng/mL. The “CBD MIC with Cefotetan” value (Cefotetan at 0.062 μg/mL, Escherichia coli ATCC 25922) was greater than 256000 ng/mL, the “CBD MIC with Cefotetan” value (Cefotetan at 0.25 μg/mL) was 1 ng/mL and the “CBD MIC with Cefotetan” value (Cefotetan at 0.25 μg/mL, Escherichia coli ATCC 25922) was 1 ng/mL. For the same compound, the “CBD MIC with Cefotetan” value (Cefotetan at 0.5 μg/mL) was 1 ng/mL, the “CBD MIC with Cefotetan” value (Cefotetan at 0.5 μg/mL, Escherichia coli ATCC 25922) was 1 ng/mL and the “CBD MIC with Cefotetan” value (Cefotetan at […]) was 1 ng/mL. For the same compound, the “CBD MIC with Cefotetan” value (Cefotetan at […], Escherichia coli ATCC 25922) was 1 ng/mL, the “CBD MIC with Ceftazidime” value (Ceftazidime at 0.25 μg/mL, Escherichia coli ATCC 25922) was 1 ng/mL and the “CBD MIC with Ceftazidime” value (Ceftazidime at 0.5 μg/mL, Escherichia coli ATCC 25922) was 1 ng/mL. The “CBD MIC with Cefuroxime” value (Cefuroxime at 2 μg/mL, Escherichia coli ATCC 25922) was 250 ng/mL.
